Experimental data: ChEMBL document CHEMBL5360560, “Anti-Vibrio potential of natural products from marine microorganisms” (Eur J Med Chem, 2023)
Values after ≈ are worked out from the molar mass of the structure shown.

Experiments:
Vibrio anguillarum [1] = assay: Antimicrobial activity against Vibrio anguillarum assessed as bacterial growth inhibition by broth dilution assay; format: functional
Vibrio alginolyticus = assay: Antimicrobial activity against Vibrio alginolyticus assessed as bacterial growth inhibition by broth dilution assay; format: functional
Vibrio parahaemolyticus [2] = assay: Antimicrobial activity against Vibrio parahaemolyticus assessed as bacterial growth inhibition by broth dilution assay; format: functional
Vibrio harveyi [3] = assay: Antimicrobial activity against Vibrio harveyi BB120 assessed as bacterial growth inhibition by bioluminescence based Quorum-Sensing assay; format: functional, organism-based
Vibrio harveyi [4] = assay: Antimicrobial activity against Vibrio harveyi QDIO-7 assessed as bacterial growth inhibition by microplate reader assay; format: functional
Vibrio parahaemolyticus [5] = assay: Antimicrobial activity against Vibrio parahaemolyticus assessed as bacterial growth inhibition; format: functional
Vibrio anguillarum [6] = assay: Antibacterial activity against Vibrio anguillarum assessed as bacterial growth inhibition; format: functional
Vibrio harveyi [7] = assay: Antibacterial activity against Vibrio harveyi assessed as bacterial growth inhibition; format: functional
Vibrio anguillarum [8] = assay: Antimicrobial activity against Vibrio anguillarum assessed as bacterial growth inhibition; format: functional
Vibrio harveyi [9] = assay: Antimicrobial activity against Vibrio harveyi assessed as bacterial growth inhibition; format: functional
Vibrio anguillarum [10] = assay: Antimicrobial activity against Vibrio anguillarum assessed as bacterial growth inhibition by microplate reader assay; format: functional
Vibrio harveyi [11] = assay: Antimicrobial activity against Vibrio harveyi assessed as bacterial growth inhibition by microplate reader assay; format: functional
Vibrio vulnificus [12] = assay: Antimicrobial activity against Vibrio vulnificus MCCC E1758 assessed as bacterial growth inhibition by resazurin dye based assay; format: functional
Vibrio parahaemolyticus [13] = assay: Antimicrobial activity against Vibrio parahaemolyticus assessed as zone of inhibition; format: functional
Vibrio parahaemolyticus [14] = assay: Antimicrobial activity against Vibrio parahaemolyticus ATCC 17802 assessed as bacterial growth inhibition by microplate reader assay; format: functional
Vibrio vulnificus [15] = assay: Antimicrobial activity against Vibrio vulnificus assessed as bacterial growth inhibition; format: functional

C=C(C)[C@H]1COc2c(C)cc3oc4c(C[C@H](OC(C)=O)C(C)(C)O)ccc(O)c4c(=O)c3c2[C@@H]1O
MIC (Vibrio anguillarum [1]): 1.56 µM | MIC (Vibrio alginolyticus): 1.56 µM | MIC (Vibrio parahaemolyticus [2]): 1.56 µM

O=C(/C=C/CCl)O[C@@H]1COC(=O)C1
IC50 (Vibrio harveyi [3]): 5.6 µM

O=C1CC[C@@H](c2ccc(O)c3c2C(=O)CCC3=O)c2cccc(O)c21
MIC (Vibrio harveyi [4]): 4 µg/mL

COc1cc(O)c2c(c1)C(=O)C1=C(C2=O)[C@H](O)[C@@H](O)[C@@](C)(O)C1
MIC (Vibrio parahaemolyticus [5]): 25 µM

CC(C)(O)[C@H](O)CC[C@]1(C)[C@@H](O)CC[C@@]2(C)[C@H]1CC[C@H]1Cc3c([nH]c4ccccc34)[C@@]12C
MIC (Vibrio anguillarum [1]): 3.1 µM | MIC (Vibrio alginolyticus): 3.1 µM | MIC (Vibrio parahaemolyticus [2]): 6.3 µM

C[C@H](O)/C=C1/C(=O)O[C@H]([C@@H](C)O)[C@@H]1O
MIC (Vibrio anguillarum [6]): 0.5 µg/mL | MIC (Vibrio harveyi [7]): 32 µg/mL (≈ 158 µM)

C=C(C)[C@H]1COc2c(C)cc3oc4c([C@@H](OC)[C@@H](O)C(C)(C)O)ccc(O)c4c(=O)c3c2[C@@H]1OC(C)=O
MIC (Vibrio anguillarum [1]): 1.56 µM | MIC (Vibrio alginolyticus): 1.56 µM | MIC (Vibrio parahaemolyticus [2]): 1.56 µM

C/C=C/CC/C=C/c1c(O)cc(CC=C(C)C)c(O)c1C=O
MIC (Vibrio anguillarum [8]): 65 µM | MIC (Vibrio harveyi [9]): 65 µg/mL

CCCCCc1cc(O)c2ccccc2n1
MIC (Vibrio harveyi [7]): 4 µg/mL (≈ 18.6 µM)

C[C@H]1CC[C@H]2[C@@H](C=C[C@H](C)[C@]2(C)C(=O)CCO)[C@@H]1O
MIC (Vibrio anguillarum [10]): 4 µg/mL | MIC (Vibrio harveyi [11]): 4 µg/mL

C[C@@H](O)CCCCC[C@H](C)[C@@H]1C=CC(=O)O1
MIC (Vibrio parahaemolyticus [2]): 25 µM

CCOC(=O)Cc1cc(O)cc(O)c1C(=O)CC
MIC (Vibrio vulnificus [12]): 15.6 µg/mL (≈ 61.8 µM)

CC[C@@H](C)[C@H](/C=C/C(=C/CC[C@@H](C)C[C@H](C)[C@H]1C[C@@H](O)[C@H](C)CC/C=C/[C@H](C)C/C=C(\C)[C@H](O)CCC[C@@H](O)[C@H](C)/C=C/C(=O)O1)CO)OC(C)=O
MIC (Vibrio parahaemolyticus [5]): 1.56 µg/mL

CC[C@@H](C)[C@@H](O)/C=C/C(C)=C/CC[C@@H](C)C[C@H](C)[C@H]1C[C@@H](O)[C@H](C)CC/C=C/[C@H](C)C/C=C(\C)[C@H](O)CCC[C@@H](O)[C@H](C)/C=C/C(=O)O1
MIC (Vibrio parahaemolyticus [5]): 1.56 µg/mL

CC(C)=CCc1ccc(O)c(C=O)c1
MIC (Vibrio anguillarum [8]): 65 µM | MIC (Vibrio harveyi [9]): 65 µg/mL

CC[C@H]1/C=C/CC[C@@H](C)[C@H](O)C[C@H]([C@@H](CO)C[C@H](C)CC[C@H](O)[C@H](C)/C=C/[C@H](O)C(C)C)OC(=O)/C=C/[C@](C)(O)[C@H](O)CCC[C@@H](O)[C@H](C)CC1
MIC (Vibrio parahaemolyticus [5]): 1.56 µg/mL

CO[C@@H]1CC(=O)/C=C/C[C@@H](C)OC(=O)C[C@H](O)C1
MIC (Vibrio parahaemolyticus [2]): 25 µM

CC(C)CCC[C@@](C)(O)c1ccc(C(=O)O)cc1O
MIC (Vibrio anguillarum [6]): 10 µM | MIC (Vibrio parahaemolyticus [5]): 5 µM

C[C@H]1[C@H]([C@@]2(C)CCC([C@](C)(O)CO)O2)CC[C@@]1(C)O (stereo partly drawn)
inhibition zone (IZ) (Vibrio parahaemolyticus [13]): 6.2 mm

COc1ccc(O)c(-c2cc(OC)ccc2O)c1
MIC (Vibrio parahaemolyticus [2]): 10 µg/mL

CCOC(=O)Cc1cc(OC)cc(OC)c1C(=O)CC
MIC (Vibrio vulnificus [12]): 15.6 µg/mL (≈ 55.7 µM)

O=C1c2cc(O)cc(O)c2C(=O)c2c1cc(O)c(C(CO)CCO)c2O (stereo not drawn)
MIC (Vibrio parahaemolyticus [14]): 12 µg/mL

CC[C@@H](C)[C@@H](O)/C=C/C=C/CC[C@@H](C)C[C@H](C)[C@H]1C[C@@H](O)[C@H](C)CC/C=C/[C@H](C)C/C=C(\C)[C@H](O)CCC[C@@H](OC)[C@H](C)/C=C/C(=O)O1
MIC (Vibrio parahaemolyticus [5]): 1.56 µg/mL

CCC[C@@H]1C(C)=C[C@@H]2C[C@H](C)CC[C@H]2[C@]1(C)C(=O)C1=C(O)C(=O)NC1=O
MIC (Vibrio anguillarum [8]): 12.5 µg/mL

CC(O)C(Cl)C1=C[C@H]([C@H](C)O)OC1=O (stereo partly drawn)
MIC (Vibrio anguillarum [6]): 0.5 µg/mL | MIC (Vibrio harveyi [7]): 32 µg/mL (≈ 145 µM)

C/C(=C\[C@H]1OC(=O)[C@H](C)[C@@H]1C)[C@H]1CCC2=C3C=CC4=CC(=O)CC[C@]4(C)[C@H]3CC[C@@]21C
MIC (Vibrio anguillarum [1]): 25 µg/mL | MIC (Vibrio alginolyticus): 25 µg/mL | MIC (Vibrio parahaemolyticus [2]): 25 µg/mL

C[C@H]1C[C@H](O)[C@H]2[C@@H](C=C[C@@](C)(O)[C@]2(C)C(=O)CCO)C1
MIC (Vibrio anguillarum [10]): 4 µg/mL | MIC (Vibrio harveyi [11]): 4 µg/mL

COC(=O)C[C@H](O)COC(=O)/C=C/CCl
IC50 (Vibrio harveyi [3]): 14.6 µM

C=C(C)[C@H]1COc2c(C)cc3oc4c([C@@H](OC)[C@@H](O)C(=C)C)ccc(O)c4c(=O)c3c2[C@@H]1OC(C)=O
MIC (Vibrio anguillarum [1]): 1.56 µM | MIC (Vibrio alginolyticus): 1.56 µM | MIC (Vibrio parahaemolyticus [2]): 1.56 µM

O=C1c2cccc(O)c2C(=O)c2c1cc(O)c(C(CO)CCO)c2O (stereo not drawn)
MIC (Vibrio parahaemolyticus [14]): 24 µg/mL

CCOC(=O)C[C@H](O)COC(=O)/C=C/CCl
IC50 (Vibrio harveyi [3]): 17.6 µM

CC(=O)O[C@H]1CC[C@@]2(C)[C@@H](CC[C@H]3Cc4c([nH]c5ccccc45)[C@@]32C)[C@]1(C)CC[C@@H](O)C(C)(C)O
MIC (Vibrio anguillarum [1]): 12.5 µM | MIC (Vibrio alginolyticus): 12.5 µM | MIC (Vibrio parahaemolyticus [2]): 12.5 µM

CC(C)/C=C1\NC(=O)[C@@H](Cc2ccccc2)n2c1nc1ccccc1c2=O
MIC (Vibrio harveyi [4]): 64 µg/mL

CCCCCC(=O)NCCc1ccccc1
IC50 (Vibrio harveyi [3]): 99 µM

COc1cc(O)c2c(=O)c(C)c(C)oc2c1O
MIC (Vibrio vulnificus [15]): 32 µg/mL (≈ 135 µM)

CC[C@H](C)[C@@H]1NC(=O)[C@@H](Cc2ccccc2)n2c1nc1c(c2=O)C=CC=CO1
MIC (Vibrio harveyi [4]): 64 µg/mL

C/C(=C\[C@H]1OC(=O)[C@@H](C)[C@@H]1C)[C@H]1CCC2=C3C=CC4=CC(=O)CC[C@]4(C)[C@H]3CC[C@@]21C
MIC (Vibrio anguillarum [1]): 25 µg/mL | MIC (Vibrio alginolyticus): 25 µg/mL | MIC (Vibrio parahaemolyticus [2]): 25 µg/mL

C=C(C)[C@@H]1COc2c(C)cc3oc4c(C[C@H](OC(C)=O)C(C)(C)O)ccc(O)c4c(=O)c3c2[C@@H]1O
MIC (Vibrio anguillarum [1]): 1.56 µM | MIC (Vibrio alginolyticus): 1.56 µM | MIC (Vibrio parahaemolyticus [2]): 1.56 µM

COc1cc(O)c2c(=O)c(C)c(C)oc2c1OC
MIC (Vibrio vulnificus [15]): 64 µg/mL (≈ 256 µM)

C[C@@]1(O)C=C[C@H]2C[C@@H](CO)CC[C@@H]2[C@@]1(C)C(=O)CCO
MIC (Vibrio anguillarum [10]): 4 µg/mL | MIC (Vibrio harveyi [11]): 4 µg/mL

C[C@@H]1C[C@H](O)CC(=O)C/C=C/[C@@H](O)CC(=O)O1
MIC (Vibrio parahaemolyticus [2]): 25 µM

C[C@@H]1CC[C@@H]2[C@H](C=C[C@](C)(O)[C@@]2(C)C(=O)CCO)C1
MIC (Vibrio anguillarum [10]): 4 µg/mL | MIC (Vibrio harveyi [11]): 4 µg/mL

CO[C@@H]1CC(=O)C/C=C/[C@@H](O)CC(=O)O[C@H](C)C1
MIC (Vibrio parahaemolyticus [2]): 12.5 µM

COc1cc(O)c2c(c1)C(=O)[C@@H]1C[C@](C)(O)[C@H](O)[C@H](O)[C@]1(O)C2=O
MIC (Vibrio parahaemolyticus [5]): 50 µM

COc1ccc2c3c4n(c2c1)C(C=C(C)C)OOC(C)(C)C[C@@H]4N1C(=O)[C@@H]2CCCN2C(=O)[C@]1(O)[C@H]3O (stereo partly drawn)
MIC (Vibrio harveyi [9]): 16 µg/mL

Nc1ccccc1C(=O)C[C@H]1NC(=O)[C@H]2CCCN2C1=O
MIC (Vibrio harveyi [9]): 50 µM

C[C@@H]1Cc2ccc(O)c(O)c2C(=O)O1
MIC (Vibrio anguillarum [6]): 0.5 µg/mL | MIC (Vibrio harveyi [7]): 32 µg/mL (≈ 165 µM)

CC(C)/C=C1/NC(=O)[C@H](CCC(N)=O)n2c1nc1ccccc1c2=O
MIC (Vibrio harveyi [11]): 8 µg/mL

O=C1NCc2nc3ccccc3c(=O)n2C1Cc1c[nH]c2ccccc12 (stereo not drawn)
MIC (Vibrio harveyi [9]): 16 µg/mL

COc1c(Cl)c(O)cc2c1C(=O)c1c(O)cc(COC(C)=O)cc1C2=O
MIC (Vibrio parahaemolyticus [2]): 10 µM

CC[C@H](C)C[C@H](C)/C=C(\C)c1cc(=O)cc(O)o1
MIC (Vibrio parahaemolyticus [2]): 6.25 µg/mL

O=C1N[C@@H]2c3nc4ccccc4c(=O)n3[C@H]1CC21C(=O)Nc2ccccc21 (stereo partly drawn)
MIC (Vibrio harveyi [9]): 16 µg/mL

COC(=O)CC[C@H]1C(=O)N/C(=C\C(C)C)c2nc3ccccc3c(=O)n21
MIC (Vibrio harveyi [11]): 8 µg/mL

C[C@@]12C=C[C@@H]3C[C@H](CO)CC[C@@H]3[C@]1(C)C(=O)C=CO2
MIC (Vibrio anguillarum [10]): 4 µg/mL | MIC (Vibrio harveyi [11]): 4 µg/mL

CCCCc1cc(O)c2ccccc2n1
MIC (Vibrio harveyi [7]): 0.5 µg/mL (≈ 2.48 µM)

C=C(C)[C@H]1COc2c(C)cc3oc4c([C@@H](OC)[C@@H](O)C(=C)C)ccc(O)c4c(=O)c3c2[C@@H]1O
MIC (Vibrio anguillarum [1]): 1.56 µM | MIC (Vibrio alginolyticus): 1.56 µM | MIC (Vibrio parahaemolyticus [2]): 1.56 µM

COc1cc(O)c2c(c1)C(=O)C1=C(C[C@@H](O)[C@@](C)(O)C1)C2=O [ALTERSOLANOL B]
MIC (Vibrio anguillarum [1]): 5 µg/mL | MIC (Vibrio parahaemolyticus [5]): 25 µM | MIC (Vibrio parahaemolyticus [2]): 2.5 µg/mL

CC(C)/C=C1\NC(=O)[C@H](CCC(N)=O)n2c1nc1ccccc1c2=O [AURANTIOMIDE C]
MIC (Vibrio harveyi [11]): 8 µg/mL

C[C@H](O)[C@H](Cl)C1=C[C@H](O)[C@@H](C)OC1=O [CHLOROHYDROASPYRONE A]
MIC (Vibrio anguillarum [6]): 0.5 µg/mL | MIC (Vibrio harveyi [7]): 32 µg/mL (≈ 145 µM)

C[C@H](Cl)[C@@H](O)C1=C[C@H](O)[C@@H](C)OC1=O [CHLOROHYDROASPYRONE B]
MIC (Vibrio anguillarum [6]): 0.5 µg/mL | MIC (Vibrio harveyi [7]): 32 µg/mL (≈ 145 µM)

C=C(C)C1(O)OC(=O)C=C1OC (stereo not drawn) [PENICILLIC ACID]
MIC (Vibrio anguillarum [6]): 0.5 µg/mL | MIC (Vibrio harveyi [7]): 32 µg/mL (≈ 188 µM)

C=C(C)[C@H]1COc2c(C)cc3oc4c(C[C@H](O)C(C)(C)O)ccc(O)c4c(=O)c3c2[C@@H]1O [TAJIXANTHONEHYDRATE]
MIC (Vibrio anguillarum [1]): 1.56 µM | MIC (Vibrio alginolyticus): 1.56 µM | MIC (Vibrio parahaemolyticus [2]): 1.56 µM
